Test results published in patent publication US10857201B2, “NNIF and nNIF-related peptides and related methods” (UNIVERSITY OF UTAH RESEARCH FOUNDATION, priority 2016, dated 2020).
Entries after “also recorded” stand apart in the source; their conditions may differ.

Tested on: neutrophil extracellular trap (NET) formation
Experiment: In vitro NET formation by stimulated human PMNs (live cell imaging, NET-associated histone H3 release)
Assay type: cell-based
Settings: for PMA-stimulated NET deployment: PMA 20 nM, 1 hour preincubation; for PMA-stimulated NET deployment / NET formation triggered by heme: peptides 1 nM; for NET formation triggered by LPS: adult PMNs preincubated with agent, LPS 100 ng/mL, 1 hour; for NET formation triggered by heme: heme 1 μM; for relative inhibition of NETosis (order of potency): initial comparison of NRPs
Description: Qualitative assessment of NET formation was performed as previously reported (see Yost C C, et al., Blood. 2009; 113 (25):6419-27 and McInturff A M, et al., Blood. 2012; 120 (15):3118-25). Briefly, primary PMNs isolated from preterm infants, healthy term infants, and healthy adults (2×10^6 cells/mL) were incubated with control buffer or stimulated with indicated agonists or bacteria for 1 hour at 37° C. in 5% CO2/95% air on glass coverslips coated with poly-L-lysine. For selected experiments, primary PMNs were pre-incubated with autologous plasma, cord blood plasma, nNIF (0.2-70 nM), CRISPP (0.2-70 nM), nNIF-SCR (1 nM), or CRISPP-SCR (1 nM) for one hour prior to stimulation. After pre-incubation and/or stimulation, PMNs were gently washed with PBS and incubated with a mixture of cell permeable (SYTO® Green, MOLECULAR PROBES®) and impermeable (SYTOX® Orange, MOLECULAR PROBES®) DNA fluorescent dyes. Confocal microscopy was accomplished using a FV1000 IX81 confocal microscope and FLUOVIEW™ software (OLYMPUS™). Both 20× and 60× objectives were used. Z-series images were obtained at a step size of 1 μm over a range of 20 μm for each field. FLUOVIEW™ and ADOBE™ PHOTOSHOP™ CS2 software was used for image processing.
Using BSL 2 safety protocols, primary PMNs isolated from healthy adults (2×10^6 cells/mL) were incubated with mock infection buffer or live dengue virus (M010.05) as for live cell imaging. After a 1-hour incubation, the infected PMNs were fixed with 2% p-FA for 10 minutes prior to incubation with fluorescently-labeled, cell-permeable and cell-impermeable DNA dyes, and imaged as for live cell imaging using confocal microscopy.
NET-associated histone H3 content was determined as previously described (see McInturff A M, et al., Blood. 2012; 120 (15):3118-25). After live cell imaging of control and stimulated primary PMNs (2×10^6/mL; various agonists), the cells were incubated with PBS containing DNase (40 U/mL) for 15 minutes at room temperature to break down and release NETs formed in response to stimulation. The supernatant was gently removed and centrifuged at 420×g for 5 minutes. The cell-free supernatant was then mixed 3:1 with 4× Laemmli buffer prior to western blotting. A polyclonal primary antibody against human histone H3 protein (CELL SIGNALING®) and infrared-conjugated secondary antibodies (LI-COR®) were used. Imaging and densitometry were performed on the ODYSSEY® infrared imaging system)(LI-COR®). This assay was previously validated as a surrogate for NET formation under in vitro conditions (see McInturff A M, et al., Blood. 2012; 120 (15):3118-25) as employed in the present studies.
Without being bound by any specific theory, it was hypothesized that placentally expressed HTRA1, a serine protease, regulates the formation of NET-inhibitory peptides through cleavage of AAT. To test this hypothesis, term and preterm placenta were assessed for HTRA1 expression via western blotting. HTRA1 and AAT plasma expression from term and preterm infants and adults were determined by ELISA. Bioactive (0.5 μg) or placental eluted HTRA1 was incubated with AAT (8 μM) for 18 hours at 37° C. Carboxy-terminus fragments of AAT were detected using western blotting and mass spectrometry. The reaction products were incubated for 1 hour with PMNs isolated from healthy adults prior to LPS stimulation (100 ng/mL) and assessed for NET formation using live cell imaging. Reactive oxygen species were assessed using flow cytometry, chemotaxis using a modified Boyden chamber assay, and bacterial killing using E. coli.

Substance | PMA-stimulated NET deployment | NET formation triggered by LPS | NET formation triggered by heme | relative inhibition of NETosis (order of potency) | NET formation induced by live Staphylococcus aureus (S. aureus MOI 100:1, peptide 1 nM) | NET generation stimulated by dengue virus (dengue virus MOI 0.05:1, peptide 1 nM)
KFNKPFVFLMIEQNTKSPLFMGKVVNPTQ (listed as Homo sapiens) [nNIF] | blocked | potent NET-inhibitory activity; also recorded: inhibits NET formation; also recorded: inhibited LPS-stimulated NET deployment; also recorded: inhibit NET formation at nanomolar concentrations | inhibit | nNIF ≈CRISPP>A1ATm^358 | – | –
M_IPPEVKFNKPFVFLMIDQNTKVPLFMGK [CRISPP, consensus peptide based on factors present in the blood of patients with cancer] | blocked | inhibits NET formation; also recorded: inhibited LPS-stimulated NET deployment; also recorded: inhibit NET formation at nanomolar concentrations | inhibit | nNIF ≈CRISPP>A1ATm^358 | inhibited | inhibited
